Assay results from paper PMC7664879, “Discovery of 12O—A Novel Oral Multi-Kinase Inhibitor for the Treatment of Solid Tumor” (Molecules, 2020).

Experiments:
KDR (VEGFR2) = biological target: T1, KDR (VEGFR2) (Homo sapiens, UniProt P35968); assay: Kinase inhibition assay (Eurofins KinaseProfiler); format: biochemical; conditions: ATP at Km
T1 construct: purchased Eurofins (KinaseProfiler service)
Protocol: (§1) Kinase inhibition profiles were determined using KinaseProfiler services provided by Eurofins, and ATP concentrations used are the Km of corresponding kinases.
KDR (h) was incubated with 8 mM MOPS pH 7.0, 0.2 mM EDTA, 0.33 mg/mL myelin basic protein, 10 mM MgAcetate and [gamma-33P]-ATP.
(§2) All the reactions above were initiated by the addition of the Mg/ATP mix. After incubation for 40 min at room temperature, the reaction was stopped by the addition of phosphoric acid to a concentration of 0.5%. An amount of 10 µL of the reaction was then spotted onto a P30 filtermat and washed four times for 4 min in 0.425% phosphoric acid and once in methanol prior to drying and scintillation counting.

CDK6/cyclinD3(h) = biological target: T2, CDK6/cyclinD3(h) (Homo sapiens, UniProt Q00534); assay: Kinase inhibition assay (Eurofins KinaseProfiler); format: biochemical; conditions: ATP at Km
T2 construct: purchased Eurofins (KinaseProfiler service)
T2 sequence (Q00534 whole entry): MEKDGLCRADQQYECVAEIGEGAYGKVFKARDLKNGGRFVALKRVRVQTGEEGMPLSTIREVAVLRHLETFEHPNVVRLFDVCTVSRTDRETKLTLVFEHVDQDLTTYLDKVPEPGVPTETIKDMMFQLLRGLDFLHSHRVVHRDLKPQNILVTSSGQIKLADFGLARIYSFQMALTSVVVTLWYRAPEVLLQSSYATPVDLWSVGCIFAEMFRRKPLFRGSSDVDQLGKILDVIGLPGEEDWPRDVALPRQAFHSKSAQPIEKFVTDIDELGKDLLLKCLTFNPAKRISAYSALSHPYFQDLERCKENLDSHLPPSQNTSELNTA
T2 sequence (P30281 whole entry partner): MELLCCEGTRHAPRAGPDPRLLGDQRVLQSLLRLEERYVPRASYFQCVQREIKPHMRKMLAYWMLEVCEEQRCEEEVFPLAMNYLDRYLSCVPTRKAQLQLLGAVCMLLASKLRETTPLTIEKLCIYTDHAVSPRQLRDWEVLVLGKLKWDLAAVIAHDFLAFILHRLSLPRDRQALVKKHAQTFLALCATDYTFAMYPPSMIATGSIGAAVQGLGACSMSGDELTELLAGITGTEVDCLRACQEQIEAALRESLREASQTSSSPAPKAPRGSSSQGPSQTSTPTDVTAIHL
Protocol: as §1
(§3) CDK1/cyclinB (h) (CDK2/cyclinA (h), CDK3/cyclinE (h), CDK4/CyclinD(h), CDK5/p25 (h), CDK6/cyclinD3 (h)) were incubated with 8 mM MOPS pH 7.0, 0.2 mM EDTA, 0.1 mg/mL histone H1, 10 mM MgAcetate and [gamma-33P]-ATP (specific activity and concentration as required).
as §2

CDK1/cyclinB(h) = biological target: T3, CDK1/cyclinB(h) (Homo sapiens, UniProt P06493); assay: Kinase inhibition assay (Eurofins KinaseProfiler); format: biochemical; conditions: ATP at Km
T3 construct: purchased Eurofins (KinaseProfiler service)
T3 sequence (P06493 whole entry): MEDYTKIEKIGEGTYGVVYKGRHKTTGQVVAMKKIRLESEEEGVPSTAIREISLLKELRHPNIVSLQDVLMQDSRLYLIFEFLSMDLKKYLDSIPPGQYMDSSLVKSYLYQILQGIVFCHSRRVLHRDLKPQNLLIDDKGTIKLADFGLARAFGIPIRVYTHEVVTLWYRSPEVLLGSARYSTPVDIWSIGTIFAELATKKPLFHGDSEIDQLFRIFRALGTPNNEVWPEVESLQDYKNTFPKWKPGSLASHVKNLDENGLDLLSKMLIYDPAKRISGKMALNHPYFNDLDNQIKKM
T3 sequence (P14635 whole entry partner): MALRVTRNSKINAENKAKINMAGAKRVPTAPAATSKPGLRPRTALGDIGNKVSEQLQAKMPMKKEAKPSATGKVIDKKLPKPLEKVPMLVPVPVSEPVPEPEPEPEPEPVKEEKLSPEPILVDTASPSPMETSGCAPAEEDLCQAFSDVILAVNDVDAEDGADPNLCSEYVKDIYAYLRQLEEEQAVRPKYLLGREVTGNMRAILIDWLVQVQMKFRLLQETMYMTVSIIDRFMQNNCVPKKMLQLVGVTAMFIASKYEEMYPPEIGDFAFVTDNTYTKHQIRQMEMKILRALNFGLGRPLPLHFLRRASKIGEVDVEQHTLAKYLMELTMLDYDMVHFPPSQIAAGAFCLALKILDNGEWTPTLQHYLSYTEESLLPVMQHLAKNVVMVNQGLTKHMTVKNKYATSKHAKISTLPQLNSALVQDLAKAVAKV
Protocol: as §1, §3, §2

CDK5/p25(h) = biological target: T4, CDK5/p25(h) (Homo sapiens, UniProt Q00535); assay: Kinase inhibition assay (Eurofins KinaseProfiler); format: biochemical; conditions: ATP at Km
T4 construct: purchased Eurofins (KinaseProfiler service)
T4 sequence (Q00535 whole entry): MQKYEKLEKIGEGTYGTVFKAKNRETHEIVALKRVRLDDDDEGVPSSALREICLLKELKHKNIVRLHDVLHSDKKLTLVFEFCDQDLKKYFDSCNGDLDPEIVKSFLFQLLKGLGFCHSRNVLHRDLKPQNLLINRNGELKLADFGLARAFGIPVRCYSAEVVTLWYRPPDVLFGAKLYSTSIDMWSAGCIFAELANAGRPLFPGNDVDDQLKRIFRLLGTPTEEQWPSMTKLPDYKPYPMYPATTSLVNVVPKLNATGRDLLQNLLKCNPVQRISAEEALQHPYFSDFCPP
T4 sequence (Q15078 99-307 partner limits assumed): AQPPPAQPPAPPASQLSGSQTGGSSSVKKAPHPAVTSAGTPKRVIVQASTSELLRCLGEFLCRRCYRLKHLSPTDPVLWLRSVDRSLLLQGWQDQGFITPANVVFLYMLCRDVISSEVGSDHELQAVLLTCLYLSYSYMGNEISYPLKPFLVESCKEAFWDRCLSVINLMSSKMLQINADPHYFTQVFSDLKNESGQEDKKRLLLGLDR
Protocol: as §1, §3, §2

CDK4/cyclinD(h) = biological target: T5, CDK4/cyclinD(h) (Homo sapiens, UniProt P11802); assay: Kinase inhibition assay (Eurofins KinaseProfiler); format: biochemical; conditions: ATP at Km
T5 construct: purchased Eurofins (KinaseProfiler service)
T5 sequence (P11802 whole entry): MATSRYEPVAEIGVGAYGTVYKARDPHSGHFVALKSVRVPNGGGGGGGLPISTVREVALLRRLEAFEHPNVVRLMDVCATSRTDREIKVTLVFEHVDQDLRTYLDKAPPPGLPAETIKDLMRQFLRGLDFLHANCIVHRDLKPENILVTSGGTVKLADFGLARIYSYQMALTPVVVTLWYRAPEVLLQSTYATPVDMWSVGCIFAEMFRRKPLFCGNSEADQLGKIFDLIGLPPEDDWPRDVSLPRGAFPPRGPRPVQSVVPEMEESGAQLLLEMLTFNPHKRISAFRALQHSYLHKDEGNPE
T5 sequence (P30281 whole entry partner): as the sequence (P30281 whole entry partner) above
Protocol: as §1, §3, §2

CDK3/cyclinE(h) = biological target: T6, CDK3/cyclinE(h) (Homo sapiens, UniProt Q00526); assay: Kinase inhibition assay (Eurofins KinaseProfiler); format: biochemical; conditions: ATP at Km
T6 construct: purchased Eurofins (KinaseProfiler service)
T6 sequence (Q00526 whole entry): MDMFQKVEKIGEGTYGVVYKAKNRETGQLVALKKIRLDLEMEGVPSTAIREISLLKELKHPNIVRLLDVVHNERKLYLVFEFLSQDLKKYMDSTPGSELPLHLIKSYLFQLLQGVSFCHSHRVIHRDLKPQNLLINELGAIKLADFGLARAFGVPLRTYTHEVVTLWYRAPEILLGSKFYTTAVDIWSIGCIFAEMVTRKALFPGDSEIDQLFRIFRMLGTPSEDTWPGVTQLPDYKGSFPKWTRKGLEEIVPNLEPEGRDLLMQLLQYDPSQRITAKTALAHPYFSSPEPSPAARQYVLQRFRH
T6 sequence (P24864 whole entry partner): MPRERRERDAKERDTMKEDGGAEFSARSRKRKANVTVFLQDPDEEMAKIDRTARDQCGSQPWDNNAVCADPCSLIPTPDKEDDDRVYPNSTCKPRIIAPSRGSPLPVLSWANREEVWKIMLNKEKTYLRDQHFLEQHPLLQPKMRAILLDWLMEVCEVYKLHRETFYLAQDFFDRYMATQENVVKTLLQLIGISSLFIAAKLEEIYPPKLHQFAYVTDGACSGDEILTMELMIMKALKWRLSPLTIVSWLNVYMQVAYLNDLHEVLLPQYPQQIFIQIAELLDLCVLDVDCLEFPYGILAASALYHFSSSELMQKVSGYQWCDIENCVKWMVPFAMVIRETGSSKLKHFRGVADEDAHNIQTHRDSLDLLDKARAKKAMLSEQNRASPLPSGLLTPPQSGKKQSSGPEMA
Protocol: as §1, §3, §2

CDK2/cyclinA(h) = biological target: T7, CDK2/cyclinA(h) (Homo sapiens, UniProt P24941); assay: Kinase inhibition assay (Eurofins KinaseProfiler); format: biochemical; conditions: ATP at Km
T7 construct: purchased Eurofins (KinaseProfiler service)
Protocol: as §1, §3, §2

SiHa = assay: CCK-8 cell growth inhibition, SiHa; format: cell-based, human; conditions: Homo sapiens, SiHa; CCK-8 assay, 72-h incubation; read-out: Cell Lines IC50 SiHa
Protocol: (§4) In vitro anticancer screening of all newly synthesized compounds towards human solid tumor cells, cervical (SiHa) and ovarian (SKOV3) cancer cell lines, was carried out by standard CCK-8 assay with cisplatin as the positive control, as cisplatin is one of the most used chemotherapy drugs. […] The compound was further evaluated in a dose response study against a panel of solid tumor cells, including cervical cancer cell lines (SiHa and HeLa), ovarian cancer cell lines (SKOV3 and OVCAR-5), breast cancer cell lines (4T1 and MCF-7), lung cancer cell lines (A549 and H460) to test cytotoxic activity. The IC50 values were summarized in Table 2, including the cytotoxic activity of the cisplatin used as reference compound.
(§5) The viability of cells as determined using the CCK8 assay method. Cells were seeded (2000–3000 cells per well) in 96-well plates. After incubation for 24 h in serum-containing media, the cells were treated with drugs at different concentrations diluted with culture medium for 72 h at 37 °C with a 5% CO2 atmosphere. Then, 10 μL CCK8 regent (Promega, WI) was added to each well, and the plates were incubated for 1–4 h at 37 °C. Finally, absorbance values of test wells (AS), control wells (AC) and blank wells (Ab) at 450 nm were read using the Microplate Reader (Promega, WI). Inhibition ratios were calculated as follows: [(AC − AS)/ (AC−Ab)] × 100%. IC50 values were calculated using GraphPad software.

OVCAR-5 = assay: CCK-8 cell growth inhibition, OVCAR-5; format: cell-based, human; conditions: Homo sapiens, OVCAR-5; ovarian cancer; CCK-8 assay, 72-h incubation
Protocol: as §4
as §5, with “Then, 10 μL CCK8 regent (Promega, WI) was added to each well, and the plates were incubated for 1–4 h at 37 °C.” left out

SKOV3 cells = assay: Colony formation assay, SKOV3; format: cell-based, human
Text: (§6) Colony formation assay assesses the effect of a therapy on clonogenic survival which is one of the most important parameters of therapy efficacy in oncology. […] We also performed colony formation assay in SKOV3 cells at concentrations according to IC50 values to confirm the result (Figure S3).
(§7) Cells treated with indicated compounds or vehicle were washed with PBS, trypsinized, and reseeded into 6-well plates at 500–1000 cells per well. The colonies were allowed to form for 10–15 days. At the end of the culture, cells were washed with PBS, fixed with methanol for 30 min, then stained with 0.5% crystal violet overnight. After careful washing, the images were taken.

A549 = assay: CCK-8 cell growth inhibition, A549; format: cell-based, human; conditions: Homo sapiens, A549; lung cancer; CCK-8 assay, 72-h incubation
Protocol: as §4
as §5, with “Then, 10 μL CCK8 regent (Promega, WI) was added to each well, and the plates were incubated for 1–4 h at 37 °C.” left out

CDK9/cyclin T1(h) = biological target: T8, CDK9/cyclin T1(h) (Homo sapiens, UniProt P50750); assay: Kinase inhibition assay (Eurofins KinaseProfiler); format: biochemical; conditions: ATP at Km
T8 construct: purchased Eurofins (KinaseProfiler service)
T8 sequence (P50750 whole entry): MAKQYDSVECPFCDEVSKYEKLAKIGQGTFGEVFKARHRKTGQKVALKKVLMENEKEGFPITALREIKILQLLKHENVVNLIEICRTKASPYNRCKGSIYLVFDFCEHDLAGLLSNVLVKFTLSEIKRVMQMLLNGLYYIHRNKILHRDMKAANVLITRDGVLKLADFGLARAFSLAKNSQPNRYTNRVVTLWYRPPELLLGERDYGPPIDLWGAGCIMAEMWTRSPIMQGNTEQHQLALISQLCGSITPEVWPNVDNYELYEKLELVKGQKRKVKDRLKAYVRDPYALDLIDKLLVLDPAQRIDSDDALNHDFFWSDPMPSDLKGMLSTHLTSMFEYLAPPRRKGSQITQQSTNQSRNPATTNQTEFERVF
T8 sequence (O60563 whole entry partner): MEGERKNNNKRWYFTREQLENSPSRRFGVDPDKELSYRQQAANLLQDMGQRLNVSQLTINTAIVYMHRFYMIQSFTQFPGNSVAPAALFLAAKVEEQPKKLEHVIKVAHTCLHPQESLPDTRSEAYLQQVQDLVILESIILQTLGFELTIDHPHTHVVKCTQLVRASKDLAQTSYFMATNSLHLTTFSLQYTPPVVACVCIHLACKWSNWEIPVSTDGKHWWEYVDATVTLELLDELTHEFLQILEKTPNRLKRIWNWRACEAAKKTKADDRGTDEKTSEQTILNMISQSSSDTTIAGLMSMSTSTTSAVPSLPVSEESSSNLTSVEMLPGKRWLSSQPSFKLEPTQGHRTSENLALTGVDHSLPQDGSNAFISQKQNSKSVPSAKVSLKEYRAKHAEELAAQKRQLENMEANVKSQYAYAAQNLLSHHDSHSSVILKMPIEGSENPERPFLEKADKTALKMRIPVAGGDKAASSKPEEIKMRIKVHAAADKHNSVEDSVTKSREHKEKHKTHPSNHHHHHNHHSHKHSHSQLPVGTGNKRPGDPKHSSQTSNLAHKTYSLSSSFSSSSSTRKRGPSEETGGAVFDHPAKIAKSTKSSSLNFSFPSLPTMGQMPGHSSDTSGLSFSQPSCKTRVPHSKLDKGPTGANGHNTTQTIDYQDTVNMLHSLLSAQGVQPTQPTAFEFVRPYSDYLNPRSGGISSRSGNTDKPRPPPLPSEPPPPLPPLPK
Protocol: as §1
CDK9/cyclinT1 (h) was incubated with 8 mM MOPS pH 7.0, 0.2 mM EDTA, 100 uM […], 10 mM MgAcetate and [gamma-33P]-ATP (specific activity and concentration as required).
as §2

SiHa cells [1] = assay: Colony formation assay, SiHa; format: cell-based, human
Text: as §6, §7

MCF-7 = assay: CCK-8 cell growth inhibition, MCF-7; format: cell-based, human; conditions: Homo sapiens, MCF7; breast cancer; CCK-8 assay, 72-h incubation
Protocol: as §4
as §5, with “Then, 10 μL CCK8 regent (Promega, WI) was added to each well, and the plates were incubated for 1–4 h at 37 °C.” left out

SiHa cells [2] = assay: Cell cycle assay (propidium iodide, flow cytometry); format: cell-based, human; conditions: 0.04 μM, 24 h
Protocol: To understand how 12O inhibited cell proliferation, cell cycle analysis was performed. The effect of 12O on cell cycle distribution was assessed in the SiHa cell lines. […] Of note, 12O at 0.04 μM was able to increase the proportion of the cells in the G2/M phase from approximately 16.0 ± 1.3% (DMSO) to 22.3 ± 0.7%, and decreased the corresponding fraction of the cells in the S phase from about 22.8 ± 0.4 % (DMSO) to 16.1 ± 1.1 % (Figure 3).
Cells were plated on 6-well culture plates at a density of 5 × 10^5 cells/mL. The cells were treated with the indicated concentrations of 12O or ribociclib for 24 h after their adherence. Cells were washed with PBS for three times and then fixed with ice cold 75% ethanol overnight. The fixed cells were then washed with PBS and stained with propidium iodide ([…]) in the presence of RNase A (0.5 mg) for 30 min at 37 °C. The stained cells were then subjected to flow cytometry (Becton Dickinson (BD), San Jose, CA, USA.) for cell cycle analysis.

H460 = assay: CCK-8 cell growth inhibition, H460; format: cell-based, human; conditions: Homo sapiens, NCI-H460; lung cancer; CCK-8 assay, 72-h incubation
Protocol: as §4
as §5, with “Then, 10 μL CCK8 regent (Promega, WI) was added to each well, and the plates were incubated for 1–4 h at 37 °C.” left out

CC(C)n1nnc2ccc(-c3nc(Nc4ccc(CNC(=O)C5(C(=O)Nc6ccccc6)CC5)cc4)ncc3F)cc21 [12O]
inhibition at 1 µM (KDR (VEGFR2)): 81%
inhibition at 1 µM (CDK6/cyclinD3(h)): 74%
inhibition at 1 µM (CDK1/cyclinB(h); 1 µM): 98%
IC50 (CDK1/cyclinB(h)): 10 nM
inhibition at 1 µM (CDK5/p25(h); 1 µM): 99%
IC50 (CDK5/p25(h)): 6 nM
inhibition at 1 µM (CDK4/cyclinD(h); 1 µM): 91%
IC50 (CDK4/cyclinD(h)): 157 nM
inhibition at 1 µM (CDK3/cyclinE(h)): 86%
inhibition at 1 µM (CDK2/cyclinA(h); 1 µM): 99%
IC50 (CDK2/cyclinA(h)): 5 nM
IC50 (SiHa): 9 nM
IC50 (OVCAR-5): 52 nM
proliferation by colony formation assay (SKOV3 cells): effectively inhibited
IC50 (A549): 35 nM
inhibition at 1 µM (CDK9/cyclin T1(h); 1 µM): 100%
IC50 (CDK9/cyclin T1(h)): 9 nM
formation of colonies (SiHa cells [1]): dose-dependently decreased
IC50 (MCF-7): 10 nM
proportion of the cells in the G2/M phase (SiHa cells [2]; DMSO 16.0 ± 1.3%): 22.3 ± 0.7%
fraction of the cells in the S phase (SiHa cells [2]; DMSO 22.8 ± 0.4 %): 16.1 ± 1.1%
IC50 (H460): 41 nM
